Data published in ChEMBL document CHEMBL4138123, “Design, synthesis and biological evaluation of novel pyrazolochalcones as potential modulators of PI3K/Akt/mTOR pathway and inducers of apoptosis in breast cancer cells” (Eur J Med Chem, 2017).

How the values were obtained:
HL-60(TB) = experiment: Cytotoxicity against human HL-60(TB) cells assessed as growth inhibition after 48 hrs by sulforhodamine B assay; assay type: functional; settings: HL-60, 48 h
A549 = experiment: Cytotoxicity against human A549/ATCC cells assessed as growth inhibition after 48 hrs by sulforhodamine B assay; assay type: functional; settings: A549, 48 h
HCC 2998 = experiment: Cytotoxicity against human HCC2998 cells assessed as growth inhibition after 48 hrs by sulforhodamine B assay; assay type: functional; settings: HCC 2998, 48 h
HCT-15 = experiment: Cytotoxicity against human HCT15 cells assessed as growth inhibition after 48 hrs by sulforhodamine B assay; assay type: functional; settings: HCT-15, 48 h
HT-29 = experiment: Cytotoxicity against human HT-29 cells assessed as growth inhibition after 48 hrs by sulforhodamine B assay; assay type: functional; settings: HT-29, 48 h
SF-539 = experiment: Cytotoxicity against human SF539 cells assessed as growth inhibition after 48 hrs by sulforhodamine B assay; assay type: functional; settings: SF-539, 48 h
UACC-62 = experiment: Cytotoxicity against human UACC62 cells assessed as growth inhibition after 48 hrs by sulforhodamine B assay; assay type: functional; settings: UACC-62, 48 h
MCF7 = experiment: Cytotoxicity against human MCF7 cells assessed as growth inhibition after 48 hrs by sulforhodamine B assay; assay type: functional; settings: MCF7, 48 h
MDA-MB-231 = experiment: Cytotoxicity against human MDA-MB-231 cells assessed as growth inhibition after 48 hrs by MTT assay; assay type: functional, cell-based; settings: MDA-MB-231, 48 h

COc1ccc(-c2cc(/C=C/C(=O)c3ccc4c(c3)OCO4)[nH]n2)cc1OC gave a GI50 (HL-60(TB)) of 2760 nM, a GI50 (A549) of 2250 nM and a GI50 (HCC 2998) of 1740 nM. For the same molecule, the GI50 (HCT-15) was 1090 nM, the GI50 (HT-29) was 1380 nM and the GI50 (SF-539) was 520 nM. It also gave a GI50 (UACC-62) of 1860 nM, a GI50 (MCF7) of 930 nM and an IC50 (MDA-MB-231) of 2300 nM.
